Counter-ions that a name gives are not always drawn.
Experiments:
[1] = molecular target: JAK2 (Homo sapiens (Human), UniProt O60674); assay: JAK Caliper Enzyme Assay at 1 mM ATP (JAK2); type: biochemical; conditions: Caliper assay at 1 mM ATP
[2] = molecular target: JAK3 (Homo sapiens (Human), UniProt P52333); assay: JAK Caliper Enzyme Assay at 1 mM ATP (JAK3); type: biochemical; conditions: Caliper assay at 1 mM ATP
[3] = molecular target: TYK2 (Homo sapiens (Human), UniProt P29597); assay: JAK Caliper Enzyme Assay at 1 mM ATP (TYK2); type: biochemical; conditions: Caliper assay at 1 mM ATP
TYK2, sequence (P29597 whole entry, species assumed): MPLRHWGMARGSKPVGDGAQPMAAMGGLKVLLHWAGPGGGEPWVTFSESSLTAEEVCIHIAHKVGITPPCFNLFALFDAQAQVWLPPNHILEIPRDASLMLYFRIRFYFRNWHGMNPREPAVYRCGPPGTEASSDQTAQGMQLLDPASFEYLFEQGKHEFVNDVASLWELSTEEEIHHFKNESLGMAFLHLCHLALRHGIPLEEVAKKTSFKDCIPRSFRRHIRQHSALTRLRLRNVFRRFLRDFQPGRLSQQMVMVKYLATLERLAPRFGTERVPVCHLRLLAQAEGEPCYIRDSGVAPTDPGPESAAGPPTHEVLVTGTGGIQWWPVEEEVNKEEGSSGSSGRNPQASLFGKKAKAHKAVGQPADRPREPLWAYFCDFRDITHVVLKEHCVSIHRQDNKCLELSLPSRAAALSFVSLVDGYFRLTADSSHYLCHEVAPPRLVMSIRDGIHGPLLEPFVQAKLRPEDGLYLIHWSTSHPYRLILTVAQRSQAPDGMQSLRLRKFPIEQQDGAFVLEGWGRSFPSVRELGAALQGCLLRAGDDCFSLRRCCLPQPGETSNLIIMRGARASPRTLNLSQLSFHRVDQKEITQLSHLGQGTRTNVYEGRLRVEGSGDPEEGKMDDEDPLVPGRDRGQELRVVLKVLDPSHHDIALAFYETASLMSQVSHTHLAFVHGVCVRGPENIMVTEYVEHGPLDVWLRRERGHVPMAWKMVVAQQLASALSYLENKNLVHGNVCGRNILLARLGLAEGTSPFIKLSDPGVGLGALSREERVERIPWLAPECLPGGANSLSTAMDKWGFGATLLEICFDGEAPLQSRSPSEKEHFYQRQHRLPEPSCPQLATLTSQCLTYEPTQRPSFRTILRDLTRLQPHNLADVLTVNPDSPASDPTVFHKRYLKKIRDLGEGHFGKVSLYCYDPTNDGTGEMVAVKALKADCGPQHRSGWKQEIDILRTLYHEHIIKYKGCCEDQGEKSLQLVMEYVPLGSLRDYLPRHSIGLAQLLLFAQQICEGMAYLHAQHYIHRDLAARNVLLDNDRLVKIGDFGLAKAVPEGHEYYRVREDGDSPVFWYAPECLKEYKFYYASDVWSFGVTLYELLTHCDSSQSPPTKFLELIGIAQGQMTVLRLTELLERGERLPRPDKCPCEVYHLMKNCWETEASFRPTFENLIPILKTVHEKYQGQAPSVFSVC

[4] = system: rhIFNγ stimulated STAT-3 phosphorylation in the A549 human epithelial cell line; assay: A549 Cell Assay: Inhibition of pSTAT3; type: cell-based; conditions: A549 cells
Description: A549 Cell Assay: Inhibition of pSTAT3
An assay measuring the efficacy of JAK inhibitors on the functional response of recombinant human interferon γ (rhIFNγ) stimulated STAT-3 phosphorylation in the A549 human epithelial cell line.
A549 cells (ATCC #CCL-185), were plated at 30,000 cells/well in 96 well flat bottomed tissue culture plates (BD#353072) in 200 μL of growth medium (DMEM, Pfizer media prep, with 10% Fetal Bovine Serum, Sigma #F4135, 2 mM L-Glutamine, Pfizer media prep, 100 U/mL penicillin, Pfizer media prep, and 200 μg/ml streptomycin, Pfizer media prep), and cultured at 37° C., 5% CO2 incubator for 18 hours. Growth medium was removed by vacuum aspiration (V&P Scientific #vp187 bp-60), and 90 μL of pre-warmed assay medium (DMEM with 0.2% BSA, Miltenyi #130-091-376) was added to each well and incubated for 15 minutes at 37° C. 10 μL of vehicle control or test compound (final concentration range of 0.3 nM to 10 μM with 0.1% DMSO) was added to the cells. Plates were incubated at 37° C. for 1 hour. After compound incubation, 10 μL of 220 ng/mL recombinant human IFNγ (R&D Systems #285-IF, final rhIFNγ concentration of 20 ng/mL) was added to the cells and plates were incubated for 30 minutes at 37° C. Wells containing A549 cells, medium with 0.1% DMSO and no rhIFNγ were used as background controls. After rhIFNγ stimulation, media was aspirated from each well and 35 μL/well of iced-cold MSD lysis buffer containing protease and phosphatase inhibitors from Phospho-STAT3 Tyr705 assay kit (Meso-Scale Discovery #K150DID) was added to each well. Plates were incubated at 4° C. with shaking for 30 minutes. Cell lysates were assayed following the MSD Phospho-STAT3 Tyr705 assay kit protocol to detect pSTAT3.
Data were collected and transformed into percent inhibition and calculated using the following formula: […]

[5] = molecular target: JAK1 (Homo sapiens (Human), UniProt P23458); assay: JAK Caliper Enzyme Assay at 1 mM ATP (JAK1); type: biochemical; conditions: Caliper assay at 1 mM ATP
JAK1, sequence (P23458 whole entry, species assumed): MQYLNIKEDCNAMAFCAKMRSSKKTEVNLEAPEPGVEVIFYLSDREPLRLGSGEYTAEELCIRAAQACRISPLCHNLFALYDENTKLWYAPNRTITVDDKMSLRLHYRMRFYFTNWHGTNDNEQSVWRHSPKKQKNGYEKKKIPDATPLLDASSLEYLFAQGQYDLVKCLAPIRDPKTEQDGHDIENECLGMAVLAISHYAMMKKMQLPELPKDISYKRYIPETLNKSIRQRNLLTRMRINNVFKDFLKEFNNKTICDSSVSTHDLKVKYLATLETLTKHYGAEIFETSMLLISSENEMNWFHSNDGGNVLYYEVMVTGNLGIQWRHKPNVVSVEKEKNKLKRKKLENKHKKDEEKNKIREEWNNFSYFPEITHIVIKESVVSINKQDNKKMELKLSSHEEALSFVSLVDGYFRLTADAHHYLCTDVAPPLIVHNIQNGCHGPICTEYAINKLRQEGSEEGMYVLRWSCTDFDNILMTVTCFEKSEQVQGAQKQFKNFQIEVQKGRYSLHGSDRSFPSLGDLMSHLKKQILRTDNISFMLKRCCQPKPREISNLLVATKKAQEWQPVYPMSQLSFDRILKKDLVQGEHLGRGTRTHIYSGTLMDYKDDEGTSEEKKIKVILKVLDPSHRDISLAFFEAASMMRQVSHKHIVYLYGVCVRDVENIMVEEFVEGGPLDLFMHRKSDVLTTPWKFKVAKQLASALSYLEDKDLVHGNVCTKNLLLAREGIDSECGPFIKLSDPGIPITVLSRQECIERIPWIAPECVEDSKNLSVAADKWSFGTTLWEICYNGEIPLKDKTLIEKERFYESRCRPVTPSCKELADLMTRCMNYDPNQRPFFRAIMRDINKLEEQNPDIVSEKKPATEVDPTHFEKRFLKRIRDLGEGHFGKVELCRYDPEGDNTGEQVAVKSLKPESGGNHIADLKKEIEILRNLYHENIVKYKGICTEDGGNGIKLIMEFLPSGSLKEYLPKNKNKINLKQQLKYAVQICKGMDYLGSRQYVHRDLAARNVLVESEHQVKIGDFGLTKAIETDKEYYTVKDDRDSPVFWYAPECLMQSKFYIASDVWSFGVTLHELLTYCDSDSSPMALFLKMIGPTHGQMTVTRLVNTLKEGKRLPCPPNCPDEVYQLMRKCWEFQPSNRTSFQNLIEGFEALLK

JAK3, sequence (P52333 whole entry, species assumed): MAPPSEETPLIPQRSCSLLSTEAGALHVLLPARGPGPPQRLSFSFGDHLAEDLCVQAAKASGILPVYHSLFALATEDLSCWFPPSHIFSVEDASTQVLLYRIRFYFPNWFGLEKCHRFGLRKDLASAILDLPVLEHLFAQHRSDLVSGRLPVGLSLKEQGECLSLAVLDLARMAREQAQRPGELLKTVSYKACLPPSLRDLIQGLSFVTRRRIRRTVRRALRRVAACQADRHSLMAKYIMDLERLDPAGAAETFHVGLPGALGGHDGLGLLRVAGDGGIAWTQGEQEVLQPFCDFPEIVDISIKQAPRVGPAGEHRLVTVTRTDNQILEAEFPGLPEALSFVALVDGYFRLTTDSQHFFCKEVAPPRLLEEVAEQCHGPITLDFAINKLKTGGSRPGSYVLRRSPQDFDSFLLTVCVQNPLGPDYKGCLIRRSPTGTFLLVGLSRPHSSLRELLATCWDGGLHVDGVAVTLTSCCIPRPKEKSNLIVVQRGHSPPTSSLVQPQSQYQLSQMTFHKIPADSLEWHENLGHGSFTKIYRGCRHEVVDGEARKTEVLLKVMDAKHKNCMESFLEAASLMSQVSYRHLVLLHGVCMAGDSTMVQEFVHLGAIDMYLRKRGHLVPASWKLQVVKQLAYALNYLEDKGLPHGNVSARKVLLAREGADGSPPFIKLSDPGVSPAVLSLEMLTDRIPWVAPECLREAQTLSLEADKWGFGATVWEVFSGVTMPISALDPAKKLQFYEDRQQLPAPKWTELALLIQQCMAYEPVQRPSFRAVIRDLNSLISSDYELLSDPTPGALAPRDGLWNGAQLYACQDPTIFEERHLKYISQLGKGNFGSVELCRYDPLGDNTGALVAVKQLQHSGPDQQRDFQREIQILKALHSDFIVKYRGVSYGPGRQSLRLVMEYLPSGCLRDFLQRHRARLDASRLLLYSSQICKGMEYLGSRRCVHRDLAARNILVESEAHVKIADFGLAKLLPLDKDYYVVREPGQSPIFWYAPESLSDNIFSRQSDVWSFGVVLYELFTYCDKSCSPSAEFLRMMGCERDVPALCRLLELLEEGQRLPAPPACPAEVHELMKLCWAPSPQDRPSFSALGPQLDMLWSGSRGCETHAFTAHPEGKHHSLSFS
JAK2, sequence (O60674 whole entry, species assumed): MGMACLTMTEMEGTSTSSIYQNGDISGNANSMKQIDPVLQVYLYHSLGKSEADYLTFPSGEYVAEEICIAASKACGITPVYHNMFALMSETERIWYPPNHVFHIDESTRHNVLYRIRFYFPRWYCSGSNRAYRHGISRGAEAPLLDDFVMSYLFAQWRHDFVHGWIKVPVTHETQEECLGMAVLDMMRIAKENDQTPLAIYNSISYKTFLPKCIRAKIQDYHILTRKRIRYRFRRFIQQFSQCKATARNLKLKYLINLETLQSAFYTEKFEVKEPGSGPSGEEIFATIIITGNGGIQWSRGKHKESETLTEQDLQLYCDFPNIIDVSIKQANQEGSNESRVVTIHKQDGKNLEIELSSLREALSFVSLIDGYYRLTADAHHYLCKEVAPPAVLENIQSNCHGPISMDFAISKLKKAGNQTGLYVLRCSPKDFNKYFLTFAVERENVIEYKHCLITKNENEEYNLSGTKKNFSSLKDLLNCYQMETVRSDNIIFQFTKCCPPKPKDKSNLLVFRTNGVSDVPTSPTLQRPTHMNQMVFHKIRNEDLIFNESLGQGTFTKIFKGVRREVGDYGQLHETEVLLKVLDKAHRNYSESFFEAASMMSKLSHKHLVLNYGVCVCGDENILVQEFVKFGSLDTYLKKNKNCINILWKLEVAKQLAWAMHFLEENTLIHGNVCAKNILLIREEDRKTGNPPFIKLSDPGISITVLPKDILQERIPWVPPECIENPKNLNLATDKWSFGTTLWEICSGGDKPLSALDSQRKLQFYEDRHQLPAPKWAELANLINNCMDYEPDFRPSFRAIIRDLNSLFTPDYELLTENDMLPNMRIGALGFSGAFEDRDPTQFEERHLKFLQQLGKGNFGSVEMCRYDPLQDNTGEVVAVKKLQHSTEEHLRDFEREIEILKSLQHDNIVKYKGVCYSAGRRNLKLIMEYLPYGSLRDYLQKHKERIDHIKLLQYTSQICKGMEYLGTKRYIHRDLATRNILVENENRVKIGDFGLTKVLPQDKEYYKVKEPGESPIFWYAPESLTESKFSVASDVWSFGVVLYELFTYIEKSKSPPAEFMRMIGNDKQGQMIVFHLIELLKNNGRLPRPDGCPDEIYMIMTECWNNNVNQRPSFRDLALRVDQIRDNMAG

IC50 ([4]; Homo sapiens) [nM]	IC50 [5] [nM]	Compound	IC50 [1] [nM]	IC50 [2] [nM]	IC50 [3] [nM]	IC50 [4] [nM]
		6-[5-fluoro-4-hydroxy-2-(2,2,2-trifluoroethyl)phenyl]-4-({5-methoxy-2-[methyl(methylsulfonyl)amino]benzyl}amino)-N-methyl-1H-pyrazolo[4,3-c]pyridine-3-carboxamide [Example 50]	10.7	47.4	10.5	321
1180		CN(c1cc(O)ccc1CNc1nc(-c2cc(F)c(O)cc2CC(F)(F)F)cc2[nH]nc(C(N)=O)c12)S(C)(=O)=O [Example 41, 6-[5-Fluoro-4-hydroxy-2-(2,2,2-trifluoroethyl)phenyl]-4-({4-hydroxy-2-[methyl(methylsulfonyl)amino]benzyl}amino)-1H-pyrazolo[4,3-c]pyridine-3-carboxamide]				
		CNC(=O)c1n[nH]c2cc(-c3cc(F)c(O)cc3CC(F)(F)F)nc(NCc3cc(O)ccc3N(C)S(=O)(=O)c3cccnc3)c12 [Example 54, 6-[5-fluoro-4-hydroxy-2-(2,2,2-trifluoroethyl)phenyl]-4-({5-hydroxy-2-[methyl(pyridin-3-ylsulfonyl)amino]ben-zyl}amino)-N-methyl-1H-pyrazolo[4,3-c]pyridine-3-carboxamide]				135
1350		CN(c1ccc(O)cc1CNc1nc(-c2cc(F)c(O)cc2CC(F)(F)F)cc2[nH]nc(C(=O)Nc3ccc(NCCO)nc3)c12)S(C)(=O)=O [Example 75, 6-[5-Fluoro-4-hydroxy-2-(2,2,2-trifluoroethyl)phenyl]-N-{6-[(2-hydroxyethyl)amino]pyridin-3-yl}-4-({5-hydroxy-2-[methyl(methylsulfonyl)amino]benzyl}amino)-1H-pyrazolo[4,3-c]pyridine-3-carboxamide]				
		Cc1cnc(N(C)S(C)(=O)=O)c(CNc2nc(-c3cc(F)c(O)cc3CC(F)(F)F)cc3[nH]nc(C(N)=O)c23)c1 [Example 86, 6-(5-fluoro-4-hydroxy-2-(2,2,2-trifluoroethyl)phenyl)-4-(((5-methyl-2-(N-methylmethylsulfonam-ido)pyridin-3-yl)methyl)amino)-1H-pyrazolo[4,3-c]pyridine-3-carboxamide]				425
126	5.4	CNC(=O)c1n[nH]c2nc(-c3cc(F)c(O)cc3CC(F)(F)F)nc(NCc3ccccc3N(C)S(C)(=O)=O)c12 [Example 94, 6-(5-Fluoro-4-hydroxy-2-(2,2,2-trifluoroethyl)phenyl)-N-methyl-4-((2-(N-methylmethylsulfonamido)benzyl)amino)-1H-pyrazolo[3,4-d]pyrimidine-3-carboxamide]	27.7	71.2	503	
2070		CN(c1ccc(O)cc1CNc1nc(-c2cc(F)c(O)cc2CC(F)(F)F)nc2[nH]nc(C(N)=O)c12)S(C)(=O)=O [Example 97, 6-(5-Fluoro-4-hydroxy-2-(2,2,2-trifluoroethyl)phenyl)-4-((5-hydroxy-2-(N-methylmethylsulfonamido)benzyl)amino)-1H-pyrazolo[3,4-d]pyrimidine-3-carboxamide]				
6880		CNC(=O)c1n[nH]c2nc(-c3cc(F)c(O)cc3CC(F)(F)F)nc(NCc3nccnc3N(C)S(C)(=O)=O)c12 [Example 100, 6-(5-Fluoro-4-hydroxy-2-(2,2,2-trifluoroethyl)phenyl)-N-methyl-4-(((3-(N-methylmethyl-sulfonamido)pyrazin-2-yl)methyl)amino)-1H-pyrazolo[3,4-d]pyrimidine-3-carboxamide]				
3360		CNC(=O)c1n[nH]c2nc(-c3cc(F)c(O)cc3CC(F)(F)F)nc(NCc3ccccc3N(CCO)S(C)(=O)=O)c12 [Example 102, 6-(5-fluoro-4-hydroxy-2-(2,2,2-trifluoroethyl)phenyl)-4-((2-(N-(2-hydroxyethyl)methylsulfonamido)benzyl)amino)-N-methyl-1H-pyrazolo[3,4-d]pyrimidine-3-carboxamide]				
	10.4	CNC(=O)c1n[nH]c2nc(-c3cc(F)c(O)cc3CC(F)(F)F)nc(NCc3cc(F)ccc3N(C)S(C)(=O)=O)c12 [Example 104, 4-((5-fluoro-2-(N-methylmethylsulfon-amido)benzyl)amino)-6-(5-fluoro-4-hydroxy-2-(2,2,2-trifluoroethyl)phenyl)-N-methyl-1H-pyrazolo[3,4-d]pyrimidine-3-carboxamide]	66.1	113	1380	292
7020		CCN(c1ccc(O)cc1CNc1nc(-c2cc(F)c(O)cc2CC(F)(F)F)nc2[nH]nc(C(=O)NC)c12)S(=O)(=O)c1ccccc1 [Example 105, 4-((2-(N-Ethylphenylsulfonamido)-5-hydroxybenzyl)amino)-6-(5-fluoro-4-hydroxy-2-(2,2,2-trifluoroethyl)phenyl)-N-methyl-1H-pyrazolo[3,4-d]pyrimidine-3-carboxamide]				
		CCc1cc(O)c(F)cc1-c1cc2[nH]ncc2c(N(CCc2ccc(NS(C)(=O)=O)cc2)Cc2ccccc2N(C)S(C)(=O)=O)n1 [Example 130, N-[2-({[6-(2-ethyl-5-fluoro-4-hydroxyphenyl)-1H-pyrazolo[4,3-c]pyridin-4-yl](2-{4-[(methylsulfon-yl)amino]phenyl}ethyl)amino}methyl)phenyl]-N-methylmethanesulfonamide hydrochloride]				729
72.4	25.5	CCc1cc(O)cc(C)c1-c1cc2[nH]ncc2c(NCc2ccccc2N(C)S(C)(=O)=O)n1 [Example 156, N-(2-(((6-(2-Ethyl-4-hydroxy-6-methylphenyl)-1H-pyrazolo[4,3-c]pyridin-4-yl)amino)methyl)phenyl)-N-methylmethanesulfonamide]		177	10000	
31.3	5.3	CCc1cc(O)c(F)cc1-c1cc2[nH]nc(-c3nc(C)c(C)[nH]3)c2c(NCc2ccccc2N(C)S(C)(=O)=O)n1 [Example 158, N-[2-({[3-(4,5-Dimethyl-1H-imidazol-2-yl)-6-(2-ethyl-5-fluoro-4-hydroxyphenyl)-1H-pyrazolo[4,3-c]pyridin-4-yl]amino}methyl)phenyl]-N-methylmethanesulfonamide]	27.8	114	33.3	
> 10000		CSCCNc1nc(-c2cc(F)c(O)cc2CC(F)(F)F)cc2[nH]nc(-c3nc4c([nH]3)CCN(Cc3ccccc3)C4)c12 [Example 161, 4-[3-(5-Benzyl-4,5,6,7-tetrahydro-1H-imidazo[4,5-c]pyridin-2-yl)-4-{[2-(methylsulfanyl)-ethyl]amino}-1H-pyrazolo[4,3-c]pyridin-6-yl]-2-fluoro-5-(2,2,2-trifluoroethyl)phenol]				
13300		CN(c1ccccc1CNc1nc(-c2cc(F)c(O)cc2CC(F)(F)F)nc2[nH]nc(-c3nnc(C4CCN(C(=O)CN5CCCC5)CC4)[nH]3)c12)S(C)(=O)=O [Example 168, N-(2-{[(6-[5-Fluoro-4-hydroxy-2-(2,2,2-trifluoroethyl)phenyl]-3-{5-[1-(pyrrolidin-1-ylacetyl)piperidin-4-yl]-4H-1,2,4-triazol-3-yl}-1H-pyrazolo[3,4-d]pyrimidin-4-yl)amino]methyl}phenyl)-N-methylmethanesulfonamide]				
> 10000		CN(c1ccc(O)cc1CNc1nc(-c2cc(F)c(O)cc2CC(F)(F)F)nc2[nH]nc(-c3nc4c([nH]3)CCNC4)c12)S(C)(=O)=O [Example 169, N-{2-[({6-[5-Fluoro-4-hydroxy-2-(2,2,2-trifluoroethyl)phenyl]-3-(4,5,6,7-tetrahydro-1H-imidazo[4,5-c]pyridin-2-yl)-1H-pyrazolo[3,4-d]pyrimidin-4-yl}amino)methyl]-4-hydroxyphenyl}-N-methylmethanesulfonamide]				

Compound	IC50 ([4]; Homo sapiens) [nM]	IC50 [5] [nM]	IC50 [1] [nM]	IC50 [2] [nM]	IC50 [3] [nM]	IC50 [4] [nM]
CNC(=O)c1n[nH]c2cc(-c3cc(F)c(O)cc3CC(F)(F)F)nc(NCc3ccccc3N(C)S(=O)(=O)N(C)C)c12 [Example 57]		21.1	93.4	409	149	60.4
CNC(=O)c1n[nH]c2cc(-c3cc(F)c(O)cc3CC(F)(F)F)nc(NCc3ccccc3N(C)S(=O)(=O)c3cn(C)cn3)c12 [Example 59]		5.3	23.5	112	22.6	290
CCc1cc(O)c(F)cc1-c1nc(NCc2ccccc2N(C)S(C)(=O)=O)c2cn[nH]c2n1 [Example 155, N-[2-({[6-(2-Ethyl-5-fluoro-4-hydroxyphenyl)-1H-pyrazolo[3,4-d]pyrimidin-4-yl]amino}methyl)phenyl]-N-methylmethanesulfonamide hydrochloride]	30.1	1.2	5	15.5	61	

Source: patent publication US9518052B2, “Pyrazolopyridines and pyrazolopyrimidines” (Pfizer Inc., priority 2014, dated 2016)
